From the supplement of paper PMC10627819

Tests used:
B. subtilis 168 [1] = assay: fitness (endpoint OD595 vs no drug) (fraction); higher = more growth
Outline: (§1)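 With the first reading as background, OD595 was measured every 30 min for 14 h in 384-well plates kept at 37 °C and inoculated at OD595 0.01. TSB, LB Lennox or CY was the medium. Fitness is the optical density at the transition into stationary phase divided by the robust mean of no-drug control wells, with a cap of 1.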

S. pneumoniae D39V [2] = assay: as above
Outline: as §1

B. subtilis 168 [3] = assay: Bliss interaction score (quartile over a dose matrix) (fitness difference); higher = more antagonism (negative = synergy)
Outline: (§2)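 The Bliss score is observed minus expected fitness under the product model, reported as quartiles over technical, biological and donor/recipient replicates. Fitness is the OD595 at entry into stationary phase divided by the plate's robust no-drug mean and capped at 1. Single-drug fitness was inferred from combination data.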

S. aureus DSM 20231 = assay: as above
Outline: as §2

S. aureus Newman = assay: as above
Outline: as §2

S. pneumoniae D39V [4] = assay: as above
Outline: as §2
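Throughout, for Bliss interaction score (quartile over a dose matrix): first quartile when negative (synergy) and third quartile when positive (antagonism).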

CN(C)C(=O)C(CCN1CCC(O)(c2ccc(Cl)cc2)CC1)(c1ccccc1)c1ccccc1 [Loperamide] + CCN(CC)CCOC(=O)c1ccc(N)cc1 [Procaine]
fitness
Conditions | partner 85.5 µg/mL | partner 171 µg/mL | partner 342 µg/mL
B. subtilis 168 [1], first compound 25 µg/mL | 0.801 | 0.84 | 0.763
B. subtilis 168 [1], first compound 50 µg/mL | 0.0504 | 0.0536 | 0.051
B. subtilis 168 [1], first compound 100 µg/mL | 0.0164 | 0.016 | 0.052
S. pneumoniae D39V [2], first compound 17.14 µg/mL | 0.941 | 0.905 | 0.903
S. pneumoniae D39V [2], first compound 34.28 µg/mL | 0.97 | 0.853 | 0.923

fitness, S. pneumoniae D39V [2], one replicate
Conditions | first compound 20 µg/mL | first compound 40 µg/mL | first compound 68.57 µg/mL | first compound 80 µg/mL
partner 85.5 µg/mL | ≥ 1 | ≥ 1 | 0.919 | 0.999
partner 171 µg/mL | ≥ 1 | ≥ 1 | 0.874 | ≥ 1
partner 342 µg/mL | ≥ 1 | 0.986 | 0.88 | ≥ 1

Conditions | Bliss interaction score
B. subtilis 168 [3] | -0.0865
S. aureus DSM 20231 | 0.127
S. aureus Newman | 0.0372
S. pneumoniae D39V [4] | -0.0548

CN(C)C(=O)C(CCN1CCC(O)(c2ccc(Cl)cc2)CC1)(c1ccccc1)c1ccccc1 [Loperamide] + CN1C2=CC=CC=C2N=C3C1=CC=CC3=O [Pyocyanin]
Conditions | fitness
B. subtilis 168 [1], first compound 25 µg/mL, partner 1.25 µg/mL | 0.819
B. subtilis 168 [1], first compound 25 µg/mL, partner 2.5 µg/mL | 0.78
B. subtilis 168 [1], first compound 25 µg/mL, partner 5 µg/mL | 0.632
B. subtilis 168 [1], first compound 50 µg/mL, partner 5 µg/mL | 0.215
B. subtilis 168 [1], first compound 100 µg/mL, partner 1.25 µg/mL | 0.062
B. subtilis 168 [1], first compound 100 µg/mL, partner 2.5 µg/mL | 0.0311
B. subtilis 168 [1], first compound 100 µg/mL, partner 5 µg/mL | 0.0308
S. pneumoniae D39V [2], first compound 17.14 µg/mL, partner 0.325 µg/mL | ≥ 1
S. pneumoniae D39V [2], first compound 17.14 µg/mL, partner 0.65 µg/mL | 0.984
S. pneumoniae D39V [2], first compound 17.14 µg/mL, partner 1.3 µg/mL | 0.797
S. pneumoniae D39V [2], first compound 34.28 µg/mL, partner 0.325 µg/mL | 0.993
S. pneumoniae D39V [2], first compound 34.28 µg/mL, partner 0.65 µg/mL | 0.945
S. pneumoniae D39V [2], first compound 34.28 µg/mL, partner 1.3 µg/mL | 0.729

fitness, S. pneumoniae D39V [2], one replicate
Conditions | first compound 20 µg/mL | first compound 40 µg/mL | first compound 68.57 µg/mL | first compound 80 µg/mL
partner 0.325 µg/mL | ≥ 1 | ≥ 1 | ≥ 1 | ≥ 1
partner 0.65 µg/mL | ≥ 1 | ≥ 1 | 0.964 | 0.995
partner 1.3 µg/mL | – | – | 0.748 | –

Conditions | Bliss interaction score
B. subtilis 168 [3] | 0.103
S. aureus DSM 20231 | -0.0519
S. aureus Newman | -0.0463
S. pneumoniae D39V [4] | 0.0757

CN(C)C(=O)C(CCN1CCC(O)(c2ccc(Cl)cc2)CC1)(c1ccccc1)c1ccccc1 [Loperamide] + CN(C)c1cc(NC(=O)CNC(C)(C)C)c(O)c2c1C[C@H]1C[C@H]3[C@H](N(C)C)C(O)=C(C(N)=O)C(=O)[C@@]3(O)C(O)=C1C2=O [Tigecycline]
fitness
Conditions | first compound 17.14 µg/mL | first compound 20 µg/mL | first compound 25 µg/mL | first compound 34.28 µg/mL | first compound 40 µg/mL | first compound 50 µg/mL | first compound 80 µg/mL | first compound 100 µg/mL
B. subtilis 168 [1], partner 0.039 µg/mL | – | – | 0.894 | – | – | 0.132 | – | 0.0203
B. subtilis 168 [1], partner 0.078 µg/mL | – | – | 0.832 | – | – | 0.0334 | – | 0.0305
B. subtilis 168 [1], partner 0.156 µg/mL | – | – | 0.825 | – | – | 0.0355 | – | 0.0215
S. pneumoniae D39V [2], partner 0.65 µg/mL | 0.945 | 0.995 | – | 0.993 | 0.991 | – | 0.0427 | –
S. pneumoniae D39V [2], partner 1.3 µg/mL | ≥ 1 | 0.931 | – | 0.991 | 0.977 | – | 0.0494 | –
S. pneumoniae D39V [2], partner 2.6 µg/mL | ≥ 1 | 0.944 | – | 0.98 | 0.995 | – | 0.0611 | –

fitness, one replicate
Conditions | partner 0.125 µg/mL | partner 0.25 µg/mL | partner 0.5 µg/mL | partner 0.65 µg/mL | partner 1.3 µg/mL | partner 2.6 µg/mL
B. subtilis 168 [1], first compound 25 µg/mL | 0.978 | 0.884 | 0.858 | – | – | –
B. subtilis 168 [1], first compound 50 µg/mL | 0.327 | 0.22 | 0.272 | – | – | –
B. subtilis 168 [1], first compound 100 µg/mL | 0.67 | 0.512 | 0.67 | – | – | –
S. pneumoniae D39V [2], first compound 68.57 µg/mL | – | – | – | ≥ 1 | ≥ 1 | ≥ 1

Conditions | Bliss interaction score
B. subtilis 168 [3] | 0.115
S. aureus DSM 20231 | -0.115
S. aureus Newman | 0.0321
S. pneumoniae D39V [4] | 0.084
